According to ChEMBL document CHEMBL2046307, “Plumbagin induces apoptosis in Her2-overexpressing breast cancer cells through the mitochondrial-mediated pathway” (J Nat Prod, 2012):
Calls of active or inactive are those of the source. No cut-off for these calls is given here.

How the values were obtained:
[1] = tested on: BT-474; experiment: Induction of apoptosis in Her2-overexpressing human BT474 cells assessed as increase in BaK protein level after 24 hrs by Western blot analysis; type: functional, cell-based
[2] = tested on: MDA-MB-231; experiment: Antitumor activity against human MDA-MB-231 cells xenografted in nude mouse assessed as decrease in tumor volume; type: functional; design: scale not given: the % may be the effect or the level left
[3] = tested on: BT-474; experiment: Cytotoxicity against Her2-overexpressing human BT474 cells after 72 hrs by MTT assay; type: functional, cell-based; conditions: BT-474, 72 h
[4] = tested on: SK-BR-3; experiment: Induction of apoptosis in Her2-overexpressing human SKBR3 cells assessed as increase in caspase activity after 6 hrs by fluorescence analysis relative to control; type: functional
[5] = tested on: BT-474; experiment: Anticlonogenic activity in Her2-overexpressing human BT474 cells assessed as inhibition of colony formation after 6 hrs followed by washout measured after 16 days by crystal violet staining; type: functional, cell-based
[6] = tested on: BT-474; experiment: Ratio of IC50 for Her2-overexpressing human BT474 cells after 24 hrs to IC50 for Her2-overexpressing human BT474 cells after 72 hrs; type: functional
[7] = tested on: SK-BR-3; experiment: Induction of apoptosis in Her2-overexpressing human SKBR3 cells assessed as increase in caspase activity after 6 hrs by fluorescence analysis; type: functional, cell-based
[8] = tested on: SK-BR-3; experiment: Cytotoxicity against Her2-overexpressing human SKBR3 cells after 24 to 72 hrs by MTT assay; type: functional, cell-based
[9] = tested on: BT-474; experiment: Induction of apoptosis in Her2-overexpressing human BT474 cells assessed as increase in caspase activity after 6 hrs by fluorescence analysis; type: functional, cell-based
[10] = tested on: SK-BR-3; experiment: Induction of cell cycle arrest in Her2-overexpressing human SKBR3 cells assessed as increase in DNA accumulation at subG1 phase at 10 uM after 24 hrs by propidium iodide staining-based flow cytometric analysis (reference value: 11%); type: functional
[11] = tested on: SK-BR-3; experiment: Induction of apoptosis in Her2-overexpressing human SKBR3 cells assessed as increase in BaK protein level after 24 hrs by Western blot analysis; type: functional, cell-based
[12] = tested on: SK-BR-3; experiment: Cytotoxicity against Her2-overexpressing human SKBR3 cells after 72 hrs by MTT assay; type: functional, cell-based; conditions: SK-BR-3, 72 h
[13] = tested on: SK-BR-3; experiment: Induction of cell cycle arrest in Her2-overexpressing human SKBR3 cells assessed as increase in DNA accumulation at subG1 phase at 2.5 uM after 24 hrs by propidium iodide staining-based flow cytometric analysis (reference value: 11%); type: functional
[14] = tested on: SK-BR-3; experiment: Anticlonogenic activity in Her2-overexpressing human SKBR3 cells assessed as inhibition of colony formation after 6 hrs followed by washout measured after 16 days by crystal violet staining; type: functional, cell-based
[15] = tested on: SK-BR-3; experiment: Cytotoxicity against Her2-overexpressing human SKBR3 cells after 24 hrs by MTT assay; type: functional, cell-based; conditions: SK-BR-3, 24 h
[16] = tested on: BT-474; experiment: Cytotoxicity against Her2-overexpressing human BT474 cells after 24 hrs by MTT assay; type: functional, cell-based; conditions: BT-474, 24 h
[17] = tested on: SK-BR-3; experiment: Induction of apoptosis in Her2-overexpressing human SKBR3 cells assessed as decrease in Bcl-2 protein level after 24 hrs by Western blot analysis; type: functional, cell-based
[18] = tested on: SK-BR-3; experiment: Induction of apoptosis in Her2-overexpressing human SKBR3 cells assessed as increase in Bax protein level after 24 hrs by Western blot analysis; type: functional, cell-based
[19] = tested on: BT-474; experiment: Induction of apoptosis in Her2-overexpressing human BT474 cells assessed as increase in Bax protein level after 24 hrs by Western blot analysis; type: functional, cell-based
[20] = tested on: BT-474; experiment: Induction of apoptosis in Her2-overexpressing human BT474 cells assessed as decrease in Bcl-2 protein level after 24 hrs by Western blot analysis; type: functional, cell-based
[21] = tested on: SK-BR-3; experiment: Induction of cell cycle arrest in Her2-overexpressing human SKBR3 cells assessed as increase in DNA accumulation at subG1 phase at 5 uM after 24 hrs by propidium iodide staining-based flow cytometric analysis (reference value: 11%); type: functional
[22] = tested on: BT-474; experiment: Cytotoxicity against Her2-overexpressing human BT474 cells after 24 to 72 hrs by MTT assay; type: functional, cell-based
[23] = tested on: BT-474; experiment: Induction of apoptosis in Her2-overexpressing human BT474 cells assessed as increase in caspase activity at 10 uM after 6 hrs by fluorescence analysis relative to control; type: functional
[24] = tested on: SK-BR-3; experiment: Anticlonogenic activity in Her2-overexpressing human SKBR3 cells assessed as inhibition of colony formation at 1 uM after 6 hrs followed by washout measured after 16 days by crystal violet staining; type: functional
[25] = tested on: BT-474; experiment: Anticlonogenic activity in Her2-overexpressing human BT474 cells assessed as inhibition of colony formation at 1 uM after 6 hrs followed by washout measured after 16 days by crystal violet staining; type: functional
[26] = tested on: SK-BR-3; experiment: Induction of cell cycle arrest in Her2-overexpressing human SKBR3 cells assessed as increase in DNA accumulation at subG1 phase after 24 hrs by propidium iodide staining-based flow cytometric analysis; type: functional
[27] = tested on: BT-474; experiment: Induction of apoptosis in Her2-overexpressing human BT474 cells assessed as accumulation at subG1 phase by propidium iodide staining-based flow cytometric analysis; type: functional, cell-based

Question: How did the Activity [1] turn out when `CC1=CC(=O)c2c(O)cccc2C1=O` [PLUMBAGIN] was run?
Answer: Dose-dependent effect

Question: And the Activity [2]?
Answer: 70%

Question: What about the IC50 [3] of the same compound?
Answer: 800 nM

Question: What about the “fold change (FC)” value [4] of the same compound?
Answer: 4

Question: And the Activity [5]?
Answer: Dose-dependent effect

Question: And the “Ratio IC50” value [6]?
Answer: 2

Question: And the Activity [7]?
Answer: Dose-dependent effect

Question: And the Activity [8]?
Answer: Dose-dependent effect

Question: And the Activity [9]?
Answer: Dose-dependent effect

Question: What about the Activity [10] of the same compound?
Answer: 73%

Question: What about the Activity [11] of the same compound?
Answer: Dose-dependent effect

Question: What about the IC50 [12] of the same compound?
Answer: 1800 nM

Question: And the Activity [13]?
Answer: 20%

Question: What about the Activity [14] of the same compound?
Answer: Dose-dependent effect

Question: What about the IC50 [15] of the same compound?
Answer: 3200 nM

Question: What about the IC50 [16] of the same compound?
Answer: 1800 nM

Question: What about the Activity [17] of the same compound?
Answer: Active

Question: And the Activity [18]?
Answer: Dose-dependent effect

Question: What about the Activity [19] of the same compound?
Answer: Dose-dependent effect

Question: What about the Activity [20] of the same compound?
Answer: Active

Question: What about the Activity [21] of the same compound?
Answer: 43%

Question: What about the Activity [22] of the same compound?
Answer: Dose-dependent effect

Question: What about the “fold change (FC)” value [23] of the same compound?
Answer: 5

Question: What about the inhibition at 1 µM [24] of the same compound?
Answer: 50%

Question: And the inhibition at 1 µM [25]?
Answer: 40%

Question: And the Activity [26]?
Answer: Dose-dependent effect

Question: What about the Activity [27] of the same compound?
Answer: inactive
